According to patent publication US10688122B2, “Thiol and disulfide-containing agents for increasing meibomian gland lipid secretion” (Azura Ophthalmics Ltd., priority 2015, dated 2020):

System: Sebocytes SEBO662 (3D epithelium)
Assay: Lipid synthesis/accumulation in 3D model culture of Sebocytes (Oil-red-O staining, lipid droplet surface area)
Type: cell-based, human
Conditions: for lipid accumulation, % of the control / stimulation of lipid accumulation (in words): 14 days incubation, 3D Sebocytes; for lipid accumulation, % of the control: Oil-red-O lipid droplet surface area; for effect on lipid synthesis in the 3D Sebocytes model (conclusion, in words): overall conclusion, no concentration stated
From the text: Since secretory cells (meibocytes) of meibomian glands, share similarities with that of the secretory cells (sebocytes) of sebaceous glands, as can be validated from their similar structure, similar function and their joint embryologic development (Knop 2011_IOVS) the effect of Thiol containing Lipids on lipid production can be evaluated in a 3D model culture of Sebocytes. See also: Barrault 2012, Immortalized sebocytes can spontaneously differentiate into a sebaceous-like phenotype when cultured as a 3D epithelium, Exp. Derm, 21:299-319
The effect of different compounds on lipid synthesis was evaluated, in a 3D model culture of Sebocytes. Drug candidates were drugs containing S—H or disulfide: Selenium disulfide (SeS2 dispersed in CarboxymethylCellulose—CMC) as a positive control, Selenocysteine, Captopril, Disulfiram and lipids containing S—H or disulfide: Thioethanol, 12-Mercaptododecanoic acid. Since Sebocytes differentiation is associated with increased lipid synthesis and accumulation, evaluation of proliferation and differentiation was done by quantifying lipid accumulation in the 3D Sebocytes culture (human cell line—SEBO662). Lipid accumulation was evaluated by lipid staining with Oil red staining.
Sebocytes SEBO662 were cultured into a three dimension (3D) epithelium and differentiated to a sebaceous-like phenotype. The Sebocytes were treated or not (control) with the test compounds and incubated for 14 days. All experiments were performed 3 times. After incubation, tissues were snap-frozen. Formaldehyde-fixed cryo sections were stained using an Oil-red-O solution and counterstained using haematoxylin. For each test condition, the sections were observed using a light microscope equipped with a camera. Five pictures were taken per replicate, making 15 values per treatment condition. The lipid content in each sample was quantified by calculation of the lipid droplet surface area. Quantitative comparison of all data points between lipid's droplet surface area of tested compounds versus control was performed

CCN(CC)C(=S)SSC(=S)N(CC)CC [Disulfiram]
lipid accumulation, % of the control (100 μM): 199%
stimulation of lipid accumulation (in words) (1000 μM): no stimulation effect
effect on lipid synthesis in the 3D Sebocytes model (conclusion, in words): significant stimulating effect

C[C@H](CS)C(=O)N1CCC[C@H]1C(=O)O [Captopril]
lipid accumulation, % of the control (1 μM): 240%
lipid accumulation, % of the control (10 μM): 173%
effect on lipid synthesis in the 3D Sebocytes model (conclusion, in words): significant stimulating effect

S=[Se]=S [Selenium disulfide]
lipid accumulation, % of the control (0.01 μM): 282%
lipid accumulation, % of the control (0.1 μM): 348%
effect on lipid synthesis in the 3D Sebocytes model (conclusion, in words): significant stimulating effect

OCCS [Thioethanol]
lipid accumulation, % of the control (0.1 μM): 251%
lipid accumulation, % of the control (1 μM): 228%
effect on lipid synthesis in the 3D Sebocytes model (conclusion, in words): significant stimulating effect

N[C@@H](C[SeH])C(=O)O [Selenocysteine]
lipid accumulation, % of the control (1 μM): 296%
stimulation of lipid accumulation (in words) (10 μM): no stimulation effect
effect on lipid synthesis in the 3D Sebocytes model (conclusion, in words): significant stimulating effect

O=C(O)CCCCCCCCCCCS [12-Mercaptododecanoic acid]
lipid accumulation, % of the control (0.1 μM): 385%
lipid accumulation, % of the control (1 μM): 349%
effect on lipid synthesis in the 3D Sebocytes model (conclusion, in words): significant stimulating effect
